For data set [1], the system named is Septoria tritici. The data set is described as follows: In vivo preventive test on Septoria tritici (wheat). The settings on record: 500 ppm of active ingredient, evaluated 21 days after inoculation. As for the experimental part: Solvent: 49 parts by weight of N,N-dimethylacetamide Emulsifier: 1 part by weight of alkylaryl polyglycol ether To produce a suitable preparation of active compound, 1 part by weight of active compound or active compound combination is mixed with the stated amounts of solvent and emulsifier, and the concentrate is diluted with water to the desired concentration. To test for preventive activity, young plants are sprayed with the preparation of active compound or active compound combination at the stated rate of application. After the spray coating has dried on, the plants are sprayed with a spore suspension of Septoria tritici. […] The plants are placed in a greenhouse at a temperature of approximately 15° C. and a relative atmospheric humidity of approximately 80%.

The subject of data set [2] is Pyrenophora teres. The data set is described as follows: In vivo preventive test on Pyrenophora teres (barley), Example F. The settings on record: 500 ppm of active ingredient, evaluated 7-9 days after inoculation. As to the method: (§1) Solvent: 49 parts by weight of N,N-dimethylformamide Emulsifier: 1 part by weight of alkylaryl polyglycol ether To produce a suitable preparation of active compound, 1 part by weight of active compound is mixed with the stated amounts of solvent and emulsifier, and the concentrate is diluted with water to the desired concentration. To test for preventive activity, young plants are sprayed with the preparation of active compound at the stated rate of application. One day after this treatment, the plants are inoculated with an aqueous spore suspension of Pyrenophora teres. […] Then the plants are placed in a greenhouse at a temperature of approximately 20° C. and a relative atmospheric humidity of approximately 80%.

Data set [3] relates to Alternaria solani. Put plainly: In vivo preventive test on Alternaria solani (tomato). The settings on record: 500 ppm of active ingredient, evaluated 7 days after inoculation. As for the experimental part: as §1, with “Alkylarylpolyglycolether” for “alkylaryl polyglycol ether”, “Alternaria solani.” for “Pyrenophora teres.”, “an incubation cabinet” for “a greenhouse”, “at” for “at a temperature of”, “96%.” for “approximately 80%.”

The nature of data set [4]: log P by HPLC on reversed-phase column (C18), EEC Directive 79/831 Annex V.A8. In kind it is physicochemical. The settings on record: 40° C., 0.1% aqueous formic acid and acetonitrile, linear gradient 10% to 90% acetonitrile. As for the experimental part: In table 1, the log P values were determined in accordance with EEC Directive 79/831 Annex V.A8 by HPLC (High Performance Liquid Chromatography) on a reversed-phase column (C18), using the method described below:
Temperature: 40° C.; Mobile phases: 0.1% aqueous formic acid and acetonitrile; linear gradient from 10% acetonitrile to 90% acetonitrile.
Calibration was carried out using unbranched alkan-2-ones (comprising 3 to 16 carbon atoms) with known log P values (determination of the log P values by the retention times using linear interpolation between two successive alkanones). lambda-max-values were determined using UV-spectra from 200 nm to 400 nm and the peak values of the chromatographic signals.

Data set [5] has as its system Aflatoxins production by Aspergillus parasiticus. In kind it is cell-based.
For data set [6], the system named is Aspergillus parasiticus. The format is cell-based. The settings on record: 7 days at 20° C., OD620nm.
For data set [7], the system named is Leptosphaeria nodorum. Put plainly: In vivo preventive test on Leptosphaeria nodorum (wheat). The settings on record: 500 ppm of active ingredient, evaluated 8 days after inoculation. As for the experimental part:
Solvent: 49 parts by weight of N,N-dimethylacetamide Emulsifier: 1 part by weight of alkylaryl polyglycol ether To produce a suitable preparation of active compound, 1 part by weight of active compound or the compound combination is mixed with the stated amounts of solvent and emulsifier, and the concentrate is diluted with water to the desired concentration. To test for protective activity, young plants are sprayed with a preparation of active compound or active compound combination at the stated rate of application. After the spray coating has dried on, the plants are sprayed with a spore suspension of Leptosphaeria nodorum. […] The plants are placed in a greenhouse at a temperature of approximately 15° C. and a relative atmospheric humidity of approximately 80%.

Data set [8] relates to Venturia inaequalis. The data set is described as follows: In vivo preventive test on Venturia inaequalis (apple scab). The settings on record: 100 ppm of active ingredient, evaluated 10 days after inoculation. As for the experimental part: Solvent: 24.5 parts by weight of acetone • 24.5 parts by weight of N,N-dimethylacetamide Emulsifier: 1 part by weight of alkylaryl polyglycol ether To produce a suitable preparation of active compound, 1 part by weight of active compound is mixed with the stated amounts of solvent and emulsifier, and the concentrate is diluted with water to the desired concentration. To test for protective activity, young plants are sprayed with the preparation of active compound at the stated rate of application. […] The plants are then placed in a greenhouse at approximately 21° C. and a relative atmospheric humidity of approximately 90%.

SMILES strings stand for the structures. “And” between values parts separate entries of the source, which are not always exact repeats. Equal values may be shown once.

Usually logP stands for a log measure of how a compound divides between an organic and an aqueous phase. A low value points to lower lipophilicity. For `Cn1nc(C(F)F)c(C(=O)NC[Si](C)(C)c2ccccc2Cl)c1F` [Example 15], the figures for the Efficacy in data set [1], in data set [2] and in data set [3] were 90%, 100% and 95%, respectively. Also, the logP in data set [4] is 3.48. In addition, the “% Inhibition of Aflatoxin at 50 μM” value in data set [5] was found to be 88%. Further, the “% Inhibition of fungal growth at 50 μM” value in data set [6] is on record as 76%.
As for `Cn1cc(C(=O)N(C[Si](C)(C)c2ccccc2Cl)C2CC2)c(C(F)F)n1` [Example 17], the Efficacy in data set [1] was 83%; in data set [2], 95%; in data set [3], 94%; in data set [7], 94%; in data set [8], 98%. In data set [4], the log partition coefficient (logP) was 3.73.
For `Cc1nn(C)c(F)c1C(=O)N(C[Si](C)(C)c1cc(Cl)cc(Cl)c1)C1CC1` [Example 48], the Efficacy in data set [2], in data set [3] and in data set [7] was 100% in each case. The same compound registered a logP in data set [4] of 4.34.
Turning to `CCc1nn(C)c(F)c1C(=O)N(C[Si](C)(C)c1cc(Cl)cc(Cl)c1)C1CC1` [Example 49], the Efficacy in data set [1] turned out to be 100%; in data set [2], 100%; in data set [3], 94%; in data set [7], 94%; in data set [8], 96%. In data set [4], this compound registered a logP of 4.78.
For the compound `Cc1nc(C(F)F)c(C(=O)N(C[Si](C)(C)c2cccc(Cl)c2)C2CC2)s1` [Example 32], the Efficacy in data set [1] is reported as 100%; in data set [2], 95%; in data set [7], 100%. In data set [4], this compound came in with a logP of 4.32.
With `CCc1nn(C)c(F)c1C(=O)N(C[Si](C)(C)c1cccc(Cl)c1)C1CC1` [Example 28], the Efficacy in data set [1] worked out at 100%; in data set [2], 100%; in data set [3], 100%; in data set [7] it was 100%; in data set [8] it was 88%. The logP in data set [4] is reported as 4.08.
As for `Cn1cc(C(=O)N(C[Si](C)(C)c2cccc(Cl)c2)C2CC2)c(C(F)F)n1` [Example 30], the Efficacy in data set [1] was 100%; in data set [2], 100%; in data set [3], 95%; in data set [7] it was 100%. The logP in data set [4] worked out at 3.80.
For the compound `Cc1nn(C)c(F)c1C(=S)N(C[Si](C)(C)c1ccccc1)C1CC1` [Example 10], the Efficacy in data set [1], in data set [2], in data set [3] and in data set [7] was 100% throughout. The compound also had a logP in data set [4] of 3.99.
With `CCc1nn(C)c(F)c1C(=S)N(C[Si](C)(C)c1ccccc1)C1CC1` [Example 9], the Efficacy is 93% in data set [1], 100% in data set [2], 100% in data set [3] and 100% in data set [7]. This compound yielded a logP in data set [4] of 4.41.
Take `CCc1nn(C)c(F)c1C(=O)N(C[Si](C)(C)c1ccccc1Cl)C1CC1` [Example 20]: the Efficacy in data set [1] came out at 92%; in data set [2], 100%; in data set [3], 100%; in data set [7], 100%; in data set [8], 90%. Besides, in data set [4], the logP stood at 4.03.
As to `CN(C[Si](C)(C)c1ccccc1)C(=O)c1c(C(F)F)nn(C)c1F` [Example 4], the Efficacy turned out to be 100% in data set [1], 100% in data set [2], 100% in data set [3] and 93% in data set [7]. For the same compound, the logP in data set [4] was found to be 3.23. The “% Inhibition of Aflatoxin at 50 μM” value in data set [5] was found to be 100%. In addition, in data set [6], the “% Inhibition of fungal growth at 50 μM” value was 100%.
In the case of `Cn1nc(C(F)F)c(C(=O)N(C[Si](C)(C)c2ccsc2)C2CC2)c1Cl` [Example 75], the Efficacy in data set [2] is given as 100%; in data set [3] it was 94%. The same compound came in with a logP in data set [4] of 3.71. Also, the “% Inhibition of Aflatoxin at 50 μM” value in data set [5] was 100%. In addition, in data set [6], the “% Inhibition of fungal growth at 50 μM” value is recorded as 100%.
As to `Cn1nc(C(F)F)c(C(=O)N(C[Si](C)(C)c2ccsc2)C2CC2)c1F` [Example 76], the results for the Efficacy in data set [2] and in data set [3] were 100% and 94%, respectively. For the same compound, in data set [4], the logP turned out to be 3.55. In addition, the “% Inhibition of Aflatoxin at 50 μM” value in data set [5] is on record as 100%. Moreover, in data set [6], the “% Inhibition of fungal growth at 50 μM” value was determined as 100%.
With `Cn1cc(C(=O)N(C[Si](C)(C)c2cc(Cl)cc(Cl)c2)C2CC2)c(C(F)F)n1` [Example 51], the Efficacy is 100% in data set [1]; 100% in data set [2]; 95% in data set [3]; 80% and 95% in data set [7]. The logP in data set [4] is given as 4.41.
For the compound `Cc1nc(C(F)F)c(C(=O)N(C[Si](C)(C)c2ccccc2Cl)C2CC2)s1` [Example 21], the Efficacy in data set [1] was determined as 100%; in data set [2], 100%; in data set [3], 95%; in data set [7], 100%. In data set [4], this compound yielded a logP of 4.32.
Consider `Cn1nc(C(F)F)c(C(=O)N(C[Si](C)(C)c2ccc3ccccc3c2)C2CC2)c1F` [Example 74], for which the Efficacy in data set [2] and in data set [3] was 100% each time. In data set [4], the logP is reported as 4.36. The “% Inhibition of Aflatoxin at 50 μM” value in data set [5] is 100%. Further, the “% Inhibition of fungal growth at 50 μM” value in data set [6] is 100%.
Take `Cn1nc(C(F)F)c(C(=O)N(C[Si](C)(C)Cc2ccccc2Cl)C2CC2)c1F` [Example 61]: the Efficacy in data set [2] and in data set [3] was 100% each time. This compound displayed a logP in data set [4] of 4.41. For the same compound, in data set [5], the “% Inhibition of Aflatoxin at 50 μM” value is recorded as 100%. In data set [6], the “% Inhibition of fungal growth at 50 μM” value worked out at 100%.
Consider `Cn1nc(C(F)F)c(C(=O)NC[Si](C)(C)c2ccccc2)c1Cl` [Example 2], for which the Efficacy in data set [2] came out at 100%; in data set [3] it was 95%. In data set [4], the log partition coefficient (logP) stood at 3.31. Moreover, the “% Inhibition of Aflatoxin at 50 μM” value in data set [5] worked out at 87%. Moreover, the “% Inhibition of fungal growth at 50 μM” value in data set [6] was 71%.
On to `Cn1nc(C(F)F)c(C(=O)N(C[Si](C)(C)Cc2cccc(Cl)c2)C2CC2)c1Cl` [Example 65], for which the results for the Efficacy in data set [2] and in data set [3] were 100% and 95%, respectively. Also, in data set [4], the lipophilicity (logP) amounted to 4.59. The “% Inhibition of Aflatoxin at 50 μM” value in data set [5] worked out at 82%. The “% Inhibition of fungal growth at 50 μM” value in data set [6] stood at 72%.
Take `Cc1cc(C(=O)N(C[Si](C)(C)c2ccc(Cl)cc2Cl)C2CC2)c(C)o1` [Example 40]: the values for the Efficacy in data set [1] and in data set [2] were 100% and 95%, respectively. This compound also yielded a logP in data set [4] of 5.46.
`Cn1nc(C(F)F)c(C(=O)NC[Si](C)(C)c2cccc(Cl)c2)c1F` [Example 26]: the Efficacy in data set [2] and in data set [3] was 100% in each case. The logP in data set [4] worked out at 3.55. In addition, the “% Inhibition of Aflatoxin at 50 μM” value in data set [5] was 100%. In addition, in data set [6], the “% Inhibition of fungal growth at 50 μM” value came out at 100%.
With `Cn1nc(C(F)F)c(C(=O)N(C[Si](C)(C)Cc2ccc(Cl)cc2Cl)C2CC2)c1Cl` [Example 69], the Efficacy in data set [2] and in data set [3] was 100% throughout. In data set [4], this compound came in with a logP of 5.19. Besides, the “% Inhibition of Aflatoxin at 50 μM” value in data set [5] is recorded as 100%. Moreover, the “% Inhibition of fungal growth at 50 μM” value in data set [6] stood at 85%.

Values taken from US9556205B2, “Fungicide N-[(trisubstitutedsilyl)methyl]-carboxamide derivatives” (BAYER INTELLECTUAL PROPERTY GMBH, priority 2010, dated 2017).
